In ChEMBL document CHEMBL5465560, “Selectivity Literature for EUbOPEN Chemogenomic Library” (2024):
Each block holds one molecule with its values, some of them ahead of it.

Assays:
[1] = target: T1, Ephrin type-A receptor 8 (Homo sapiens) (UniProt P29322); test: Selectivity interaction (SelectScreen profiling (Invitrogen)) EUB0000607a EPHA8; conditions: at 2 µM
T1 sequence (whole entry): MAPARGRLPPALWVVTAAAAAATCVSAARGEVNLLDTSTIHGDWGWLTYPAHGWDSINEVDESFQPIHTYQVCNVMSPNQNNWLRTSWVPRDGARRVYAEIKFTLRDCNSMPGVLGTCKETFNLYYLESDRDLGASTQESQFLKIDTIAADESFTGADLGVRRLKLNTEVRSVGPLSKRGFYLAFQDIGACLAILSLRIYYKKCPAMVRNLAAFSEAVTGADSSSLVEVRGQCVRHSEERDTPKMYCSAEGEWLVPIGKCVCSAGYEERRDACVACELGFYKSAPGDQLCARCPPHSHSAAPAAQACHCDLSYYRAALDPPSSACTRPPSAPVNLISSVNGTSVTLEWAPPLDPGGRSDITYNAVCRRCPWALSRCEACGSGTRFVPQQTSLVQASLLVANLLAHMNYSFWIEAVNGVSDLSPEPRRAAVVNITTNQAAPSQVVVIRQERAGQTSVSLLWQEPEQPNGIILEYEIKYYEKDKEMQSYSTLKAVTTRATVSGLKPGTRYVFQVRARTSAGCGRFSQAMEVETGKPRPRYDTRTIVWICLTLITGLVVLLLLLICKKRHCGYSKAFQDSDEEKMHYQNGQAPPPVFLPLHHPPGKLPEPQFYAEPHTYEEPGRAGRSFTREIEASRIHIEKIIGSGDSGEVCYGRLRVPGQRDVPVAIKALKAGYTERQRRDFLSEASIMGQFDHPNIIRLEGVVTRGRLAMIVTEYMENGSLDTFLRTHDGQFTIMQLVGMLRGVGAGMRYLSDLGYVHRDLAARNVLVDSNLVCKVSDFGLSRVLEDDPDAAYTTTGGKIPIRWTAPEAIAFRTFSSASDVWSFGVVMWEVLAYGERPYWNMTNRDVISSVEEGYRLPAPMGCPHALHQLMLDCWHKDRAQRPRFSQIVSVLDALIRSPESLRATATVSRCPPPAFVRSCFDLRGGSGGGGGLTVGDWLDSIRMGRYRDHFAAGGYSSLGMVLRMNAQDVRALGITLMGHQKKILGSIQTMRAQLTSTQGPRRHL

[2] = target: T2, Serine/threonine-protein kinase ULK3 (Homo sapiens) (UniProt Q6PHR2); test: Selectivity interaction (ActivX KiNativ screen (kinase selectivity in THP-1 cell lysates)) EUB0000639a ULK3; format: subcellular; conditions: lysate
T2 sequence (whole entry): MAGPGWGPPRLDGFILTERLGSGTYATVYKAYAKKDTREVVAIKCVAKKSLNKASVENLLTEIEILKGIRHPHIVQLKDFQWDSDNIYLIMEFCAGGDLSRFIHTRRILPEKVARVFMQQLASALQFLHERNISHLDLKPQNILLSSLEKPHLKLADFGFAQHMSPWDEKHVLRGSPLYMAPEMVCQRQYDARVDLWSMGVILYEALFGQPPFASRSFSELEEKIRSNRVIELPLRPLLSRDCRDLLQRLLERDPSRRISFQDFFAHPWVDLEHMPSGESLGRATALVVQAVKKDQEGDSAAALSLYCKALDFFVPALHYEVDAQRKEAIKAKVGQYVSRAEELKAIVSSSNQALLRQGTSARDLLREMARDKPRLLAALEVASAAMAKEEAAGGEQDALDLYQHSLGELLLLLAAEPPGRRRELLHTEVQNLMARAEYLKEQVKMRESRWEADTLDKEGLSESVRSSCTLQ

[3] = target: Tyrosine-protein kinase Srms (Homo sapiens) (UniProt Q9H3Y6); test: Selectivity interaction (ProQinase) EUB0000171b SRMS
[4] = target: Serine/threonine-protein kinase 16 (Homo sapiens, UniProt O75716); test: Selectivity interaction (Ambit KINOMEscan and KiNATiv profiling in Jurkat cells) EUB0000090b STK16; format: cell-based; conditions: at 1 µM
[5] = target: Tyrosine-protein kinase Fgr (Homo sapiens) (UniProt P09769); test: Selectivity interaction (KinomeScan (DiscoverX)) EUB0000229b FGR; conditions: at 10 µM
[6] = target: T3, Cyclin-dependent kinase-like 5 (Homo sapiens) (UniProt O76039); test: Selectivity interaction (KinomeScan (DiscoverX)) EUB0001619a CDKL5; conditions: at 1 µM
T3 sequence (whole entry): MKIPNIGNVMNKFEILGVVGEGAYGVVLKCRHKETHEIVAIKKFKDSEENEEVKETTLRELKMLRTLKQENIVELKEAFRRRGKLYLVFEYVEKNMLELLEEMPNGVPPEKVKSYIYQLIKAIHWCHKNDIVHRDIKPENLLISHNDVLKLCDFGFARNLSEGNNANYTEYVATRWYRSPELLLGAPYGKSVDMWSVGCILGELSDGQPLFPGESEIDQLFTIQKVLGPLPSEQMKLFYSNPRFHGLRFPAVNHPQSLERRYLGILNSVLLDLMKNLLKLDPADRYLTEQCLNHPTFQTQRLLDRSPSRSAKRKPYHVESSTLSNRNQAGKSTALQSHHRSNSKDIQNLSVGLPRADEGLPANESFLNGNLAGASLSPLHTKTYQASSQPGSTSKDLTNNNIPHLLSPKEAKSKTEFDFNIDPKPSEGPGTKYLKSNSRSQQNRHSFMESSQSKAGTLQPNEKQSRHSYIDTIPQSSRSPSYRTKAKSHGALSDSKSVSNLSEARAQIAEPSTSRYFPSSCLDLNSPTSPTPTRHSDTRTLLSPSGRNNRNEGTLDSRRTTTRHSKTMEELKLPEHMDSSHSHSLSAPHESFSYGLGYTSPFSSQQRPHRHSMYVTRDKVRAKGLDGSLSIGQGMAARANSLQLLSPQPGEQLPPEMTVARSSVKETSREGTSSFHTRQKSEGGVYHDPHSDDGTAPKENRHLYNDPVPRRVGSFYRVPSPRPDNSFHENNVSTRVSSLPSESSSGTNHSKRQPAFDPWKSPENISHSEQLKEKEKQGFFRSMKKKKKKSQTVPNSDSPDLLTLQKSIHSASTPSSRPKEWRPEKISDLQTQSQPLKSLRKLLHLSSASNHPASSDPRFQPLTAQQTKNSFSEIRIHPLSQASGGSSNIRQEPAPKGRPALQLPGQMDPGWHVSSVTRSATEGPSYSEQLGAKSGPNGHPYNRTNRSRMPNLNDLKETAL

Tyrosine-protein kinase Srms (Homo sapiens), sequence (Q9H3Y6 whole entry): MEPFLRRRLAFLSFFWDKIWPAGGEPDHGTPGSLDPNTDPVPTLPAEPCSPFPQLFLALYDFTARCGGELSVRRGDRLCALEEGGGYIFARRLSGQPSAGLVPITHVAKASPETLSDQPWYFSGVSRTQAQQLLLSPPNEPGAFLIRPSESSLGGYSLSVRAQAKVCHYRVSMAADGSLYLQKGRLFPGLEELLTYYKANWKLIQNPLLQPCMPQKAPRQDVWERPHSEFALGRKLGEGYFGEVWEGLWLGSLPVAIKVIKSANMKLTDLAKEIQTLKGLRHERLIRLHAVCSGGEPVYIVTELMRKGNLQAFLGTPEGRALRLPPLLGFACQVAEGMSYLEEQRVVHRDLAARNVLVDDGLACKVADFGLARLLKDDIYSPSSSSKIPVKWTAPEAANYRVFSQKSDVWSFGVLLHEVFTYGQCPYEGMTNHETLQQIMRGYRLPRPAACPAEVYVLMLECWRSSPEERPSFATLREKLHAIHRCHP
Serine/threonine-protein kinase 16, sequence (O75716 whole entry): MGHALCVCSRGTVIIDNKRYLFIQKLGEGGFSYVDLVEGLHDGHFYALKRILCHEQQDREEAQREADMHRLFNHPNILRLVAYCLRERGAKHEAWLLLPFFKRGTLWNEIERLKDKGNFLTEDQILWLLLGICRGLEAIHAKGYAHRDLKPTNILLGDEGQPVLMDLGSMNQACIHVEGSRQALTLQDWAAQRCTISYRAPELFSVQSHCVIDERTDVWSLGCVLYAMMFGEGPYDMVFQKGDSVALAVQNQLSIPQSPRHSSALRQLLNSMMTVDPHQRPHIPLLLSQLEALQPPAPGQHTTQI
Tyrosine-protein kinase Fgr (Homo sapiens), sequence (P09769 2-529 limits assumed): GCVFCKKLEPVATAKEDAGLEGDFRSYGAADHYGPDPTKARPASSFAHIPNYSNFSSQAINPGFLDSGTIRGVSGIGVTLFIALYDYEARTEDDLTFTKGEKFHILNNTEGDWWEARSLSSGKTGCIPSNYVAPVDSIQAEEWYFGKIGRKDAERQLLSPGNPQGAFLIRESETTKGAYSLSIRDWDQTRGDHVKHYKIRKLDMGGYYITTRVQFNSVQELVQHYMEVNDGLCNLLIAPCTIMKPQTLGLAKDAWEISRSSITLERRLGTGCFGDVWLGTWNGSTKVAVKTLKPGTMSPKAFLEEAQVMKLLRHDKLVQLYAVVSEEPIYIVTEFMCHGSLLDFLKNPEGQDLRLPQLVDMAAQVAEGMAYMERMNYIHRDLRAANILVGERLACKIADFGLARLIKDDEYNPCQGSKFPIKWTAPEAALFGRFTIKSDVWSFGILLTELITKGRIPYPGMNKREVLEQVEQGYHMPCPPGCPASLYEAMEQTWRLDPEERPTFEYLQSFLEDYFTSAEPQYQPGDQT

SMILES: CNC(=O)Nc1ccc(-c2nc(N3CC4CCC(C3)O4)c3cnn(C4CCC5(CC4)OCCO5)c3n2)cc1
- % of inhibition [1]: 24%

- % of inhibition ([2]; at 0.01 µM): 11.3%
- % of inhibition ([2]; at 0.04 µM): 2.1%
- % of inhibition ([2]; at 0.2 µM): 3.4%
- % of inhibition ([2]; at 1 µM): 5.1%
- % of inhibition ([2]; at 5 µM): -3.4%
SMILES: CC[C@@H]1[C@H](F)C(=O)N[C@@H]1COc1nccc2cc(C(N)=O)c(OC)cc12 [ZIMLOVISERTIB]

- % of control ([3]; at 1 µM): 95%
- % of control ([3]; at 5 µM): 92%
SMILES: C=CC(=O)Nc1cccc(C(=O)Nc2ccc(Nc3cc(-c4[nH]c(SC)nc4C)ccn3)cc2)c1

SMILES: CN(C)C/C=C/C(=O)Nc1ccc(C(=O)N2CCCC(Nc3ncc(Cl)c(-c4c[nH]c5ccccc45)n3)C2)cc1 (stereo unspecified)
- % of control [4]: 6.2%

SMILES: COc1cc(N(C)c2ccnc3ccc(C(F)(F)F)cc23)cc(OC)c1OC
- % binding [5]: 97%

SMILES: N#Cc1cccc(-c2c[nH]c3ncnc(N4CCOCC4)c23)c1
- % of control [6]: 100%
